# In PMC11940079, “Identification of a Possible Endocannabinoid-Mediated Mechanism of Action of Cetylated Fatty Acids” (Biomolecules, 2025):
# How the values were obtained:
# [1] = target: T1, human monoacylglycerol lipase (hMAGL) (Homo sapiens, UniProt Q99685); test: spectrophotometric assay with 4-nitrophenyl acetate, single-point % inhibition at […]; format: biochemical
# T1 construct: gene MGLL
# T1 sequence (Q99685 1-303): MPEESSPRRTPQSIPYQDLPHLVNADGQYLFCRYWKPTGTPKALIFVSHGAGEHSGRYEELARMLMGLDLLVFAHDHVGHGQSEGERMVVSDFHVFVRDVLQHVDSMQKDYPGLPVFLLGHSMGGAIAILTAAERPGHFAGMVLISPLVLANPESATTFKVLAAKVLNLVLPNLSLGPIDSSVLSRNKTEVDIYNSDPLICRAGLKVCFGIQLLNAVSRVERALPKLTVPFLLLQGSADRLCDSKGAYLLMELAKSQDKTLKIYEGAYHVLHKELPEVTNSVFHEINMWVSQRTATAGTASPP
# [2] = target: T1, human monoacylglycerol lipase (hMAGL); test: spectrophotometric assay with 4-nitrophenyl acetate, recombinant human MAGL, dose-response; format: biochemical
IC50 [2],SMILES,"spectrophotometric assay with 4-nitrophenyl acetate, single-point % inhibition a [1]"
,"CCCCCC/C=C\CCCCCCCC(=O)OCCCCCCCCCCCCCCCC [3h, Hexadecyl (Z)-hexadec-9-enoate]","its close analogue 3h (cetyl palmitoleate), possessing the double bond at the same distance from the ester group as 3g, proved to be equally active"
36 ± 4 µM,"CCCCCCCCCCCCCCCCOC(=O)CCCCCCCCC [3b, Hexadecyl decanoate]",
,"CCCCCCCC/C=C\CCCCCCCC(=O)OCCCCCCCCCCCCCCCC [3i, Hexadecyl oleate]",their longer analogue 3i (cetyl oleate) displayed slightly weaker potency in the same test
